pIC50: −log10 of the molar value.
Legend:
HIV-1 (LAV strain) = assay: HIV-1 inactivation assay in PHA-stimulated PBL (FIG. 13A, B); type: cell-based
Protocol: The assay was performed as described in FIG. 13A except that the 30 min. preincubation of virus with NOBA was carried out at 0, 22 or 37° C.
An HIV-1 stock having an infectivity titer of 100,000 TCID50 was incubated for 30 min. at 22° C. with either of the drugs. Control HIV samples, containing no drugs, were incubated in the same manner. […] At the end of this incubation cultures were assayed for productive infection by an immunoassay for HIV-1 antigens and by reverse transcriptase as described in McDougal, et al., J. Immunol Methods 76:171-183 (1985). Virus titers were expressed as percentile values (percent infected cultures) compared to the controls, containing HIV dilutions which were not preincubated with the C-nitroso drugs. In a separate series of experiments, HIV-1 dilutions and C-nitroso drugs (see upper abscissa) were not preincubated but were added simultaneously to lymphocytes in exactly the same concentrations as described previously (i.e., following preincubation) and viral growth monitored 9 days later. […] Chem. Soc. 111:395-396 (1989), South, et al., Biochem Pharm. 40:123-129 (1990), Summers, et al., Biochemistry 29:329-340 (1990), the inhibition of HIV-1 propagation was profound when C-nitroso drugs were preincubated with HIV-1, whereas only negligible effect on HIV-1 growth occurred when both drugs and virus were added simultaneously.
(§1) Experiments were performed in which the incubations with NOBA was carried out at 0°, 22°, and 37° C. […] In agreement with the negligible cytotoxic effect of C-nitroso drugs on non-tumor cells described elsewhere in this application, human lymphocytes tolerated NOBA up to 50 μM without major changes in cell metabolism, which was assayed by quantitative dye reduction as described in Mosaran, J. Imm. Methods 65:55-63 (1983).

calf thymus ADPRT = calf thymus ADPRT (Bos taurus, UniProt P18493); assay: ADPRT polymerase activity inhibition/inactivation (I50)
Protocol: The compounds of the subject invention were tested for their ability to inactivate the polymerase activity of adenosinediphosphoribosyl transferase (ADPRT). Assays were performed according to the method of Buki and Kun, Biochem. 27:5990-5995 (1988), using calf thymus ADPRT.
Assay conditions: ADPRT, 0.4 μg; coDNA, 4 μg; inhibitor diluted
between 0.8 and 600 μM, in 50 μl of 50 mM TrisHCl, 50 mM KCl, 5 mM
2mercaptoethanol, 0.5 mM EDTA, 0.1 mM NAD ([32Plabelled), pH 7.5.
Polymerization at 25° C. for 4 minutes.

HIV-1 = assay: Anti-HIV action on stimulated human lymphoblasts, virus titer; type: cell-based; conditions: 10 μM; 30 min exposure; virus alone 5.25
Protocol: VIII. Anti-HIV action of NOBP, NOBA and NOQ on stimulated human lymphoblasts
Exposure to the two drugs was only for 30 minutes at the commencement of viral infection, and drugs were never re-added. The results given in Table III provide the ID50 of HIV titer 10 days after infection of cell cultures with HIV.

855-2 cells = assay: MTT assay, cytocidal activity; type: cell-based, human; conditions: 10 μM, 100,000 cells/ml
Protocol: MTT (3-[4,5-[…]]-2,5-diphenyltetrazolium bromide) at 1 mg/ml was then added for 16 hours. The absorbance of the pelleted cell was then measured at 550 nm after adding DMSO to solubilze the cells.

[1] = test system: human peripheral blood neutrophil leukocytes; assay: Superoxide generation by human neutrophils
[2] = PHA-PBL viability (MTT dye reduction); type: cell-based; conditions: human, read-out: concentration tolerated by human lymphocytes without major changes in cell metabolism
Protocol: PHA-PBL (10^6 /ml) were treated with increasing doses of NOBA for 24 hours in the presence of MTT substrate and the relative absorbance at 550 nm reflects the metabolic activity of the cells. The level of product formation in the absence of NOBA was considered to be 100% and all experimental values were normalized to that control value.
as §1

calf thymus ADPRT, sequence (P18493 whole entry): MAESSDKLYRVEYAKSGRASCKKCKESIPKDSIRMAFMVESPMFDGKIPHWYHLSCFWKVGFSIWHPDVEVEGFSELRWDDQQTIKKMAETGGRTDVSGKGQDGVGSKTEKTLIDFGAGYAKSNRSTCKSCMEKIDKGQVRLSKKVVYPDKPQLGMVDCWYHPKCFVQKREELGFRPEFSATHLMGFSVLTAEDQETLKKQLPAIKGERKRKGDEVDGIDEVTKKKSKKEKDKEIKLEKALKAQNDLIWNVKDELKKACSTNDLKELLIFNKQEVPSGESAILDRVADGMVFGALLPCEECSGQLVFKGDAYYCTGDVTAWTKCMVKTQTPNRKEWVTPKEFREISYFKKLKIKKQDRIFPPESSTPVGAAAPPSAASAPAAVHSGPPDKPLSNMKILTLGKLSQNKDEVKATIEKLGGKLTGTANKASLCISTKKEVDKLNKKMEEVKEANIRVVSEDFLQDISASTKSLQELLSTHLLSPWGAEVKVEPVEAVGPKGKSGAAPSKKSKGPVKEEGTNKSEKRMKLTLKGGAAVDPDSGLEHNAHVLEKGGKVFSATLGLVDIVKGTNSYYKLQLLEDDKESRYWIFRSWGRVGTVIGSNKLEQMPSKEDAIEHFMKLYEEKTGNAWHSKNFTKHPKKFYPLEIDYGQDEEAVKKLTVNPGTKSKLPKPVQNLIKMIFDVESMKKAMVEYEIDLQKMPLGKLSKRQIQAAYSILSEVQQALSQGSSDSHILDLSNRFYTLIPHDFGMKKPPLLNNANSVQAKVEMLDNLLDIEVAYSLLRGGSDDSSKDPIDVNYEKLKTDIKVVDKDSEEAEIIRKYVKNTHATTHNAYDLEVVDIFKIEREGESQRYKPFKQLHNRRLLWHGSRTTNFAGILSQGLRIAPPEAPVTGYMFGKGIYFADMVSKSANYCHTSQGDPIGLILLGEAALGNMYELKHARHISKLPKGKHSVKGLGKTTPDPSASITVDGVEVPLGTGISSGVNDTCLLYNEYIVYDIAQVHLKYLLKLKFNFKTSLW

Structure (SMILES): NC(=O)c1cccc(N=O)c1 [NOBA, 3-nitrosobenzamide]
- log reduction at 100 µM (HIV-1 (LAV strain); Human immunodeficiency virus 1, 0.5 h, 100 μM, 30 min, 22° C., 9 days, read-out: decrease of infectious virus available to cause 50% infected cultures): 4
- relative depression of HIV-1 propagation, in words (HIV-1 (LAV strain); NOBA vs NOBP): greater depression of HIV-1 propagation
- temperature of maximal inactivation of HIV-1 (HIV-1 (LAV strain); preincubation at 0°, 22° and 37° C.): 37 °C
- pIC50 (calf thymus ADPRT): 4.82
- Virus Titer (log ID50), 10 days (HIV-1): 1.05 log ID50
- killing of 855-2 cells (MTT), in words (855-2 cells): complete killing
- superoxide generation by human neutrophils (mean + S.D., n = 11) ([1]; 10 μM, 10^5 PMN + PMA (control 55.9 ± 7.7)): 44.4 ± 10.0 nmol O2^- /hr/10^5 cells
- superoxide generation, in words ([1]; 10 μm): Only minor reductions in superoxide generation
- MNTC at 24 h [2]: ≥ 50 µM
